One data set has as its target STAT3 (Homo sapiens, UniProt P40763). Kind of data set: STAT3 protein degradation in HOS osteosarcoma cells, western blot. More on the design: endogenous in cells. As to conditions: 500 nM, 6 h. In kind it is cell-based. How it is done: HOS osteosarcoma cells were incubated with 500 nM double-stranded transcription factor decoy oligonucleotide S3, AS1411, the first PROTAC product 1411-S3-1, the second PROTAC product 1411-S3-2, or AS1411+double-stranded transcription factor decoy oligonucleotide S3. After 6 h, cell samples were collected for protein extraction and subsequent western blot assay.
Background: In western blotting, separated proteins are transferred to a membrane and probed.

A further data set has as its system HeLa cells. Kind of data set: Cell penetration and intracellular colocalization, confocal laser microscope. As to conditions: 500 nM Cy5-labeled, 6 h. Type of data set: cell-based. How it is done: HeLa cells were incubated with 500 nM Cy5-labeled CRO or AS1411 for 6 h. After the incubation was completed, immunofluorescence staining was performed on NCL and MDM2, and 4′,6-diamidino-2-phenylindole (DAPI) was used to stain nuclei. The cell penetration of the CRO or AS1411 and the intracellular colocalization of the CRO or AS1411 with NCL and MDM2 were observed under a confocal laser microscope.
HeLa cells were transfected with si-NC or si-NCL and subsequently incubated with 500 nM Cy5-labeled AS1411 for 6 h. After the incubation was completed, immunofluorescence staining was performed on MDM2, and DAPI was used to stain nuclei. The intracellular colocalization of AS1411 with MDM2 was observed by a confocal laser microscope.

Data set [1] deals with MDM2 (Homo sapiens, UniProt Q00987). Briefly: Biotin-oligonucleotide pull-down from HeLa cell lysate, western blot (MDM2). Type of data set: binding. More on the design: HeLa cervical cancer cells were lysed with an IP lysis solution; endogenous in cells; host or cells: HeLa. As to conditions: 5′-biotin label, 0 nM-20 μM. How it is done: HeLa cervical cancer cells were lysed with an IP lysis solution (purchased from Thermo Scientific, Cat. No.: 87788) and then incubated with a CRO (cytosine-rich oligonucleotide, negative control, SEQ ID NO: 13), AS1411, or iSN04 labeled by biotin at the 5′ end at different concentrations (0 nM, 200 nM, 500 nM, 1 μM, 5 μM, 10 μM, and 20 μM) at 4° C. for 6h. Subsequently, streptavidin agarose gel beads (purchased from cytiva, Cat. No.: 17511301) were added, and the mixture was further incubated at 4° C. overnight. After the bound biotin-labeled CRO, AS411, or iSN04 and its captured proteins on the gel beads were washed multiple times with an IP lysis buffer (purchased from Thermo Scientific, Cat. No.: 87788), an SDS-PAGE protein loading buffer (purchased from Beyotime, Cat. No.: P0015) was added, and the mixture was heated to 100° C. and held for 10 min. After centrifugation, the supernatant was collected as a pull-down product. The pull-down product was detected by western blot assay.

Data set [2] deals with T1, MDM2 (Homo sapiens, UniProt P19338+Q00987).
T1 construct: endogenous in cells; host or cells: A549
Briefly: MDM2 protein degradation in A549 non-small cell lung cancer cells, western blot. In kind it is cell-based. How it is done:
(1) A549 non-small cell lung cancer cells were incubated with 200 nM AS1411-VH032, and corresponding cell samples were collected at time gradients of 0 h, 3 h, 6 h, 9 h, 12 h, and 24 h for protein extraction and subsequent western blot assay to detect protein degradation.
(2) A549 non-small cell lung cancer cells were incubated with AS1411-VH032 at concentrations of 0 nM, 50 nM, 100 nM, 150 nM, 200 nM, and 250 nM. After 3 h, cell samples were collected for protein extraction and subsequent western blot assay to detect protein degradation.
(3) A549 non-small cell lung cancer cells were incubated with 200 nM AS1411, VH032, AS1411-VH032, or AS1411+VH032. After 3 h, cell samples were collected for protein extraction and subsequent western blot assay to detect protein degradation.
(4) A549 non-small cell lung cancer cells were incubated with 200 nM AS1411-VH032 for 3 h, and proteasome inhibitor MG132 was added. Cell samples were collected for protein extraction and subsequent western blot assay.
(5) A549 non-small cell lung cancer cells were transfected with si-NC or si-NCL and subsequently incubated with 200 nM AS1411-VH032 for 3 h. Cell samples were collected for protein extraction and subsequent western blot assay.
(1) A549 non-small cell lung cancer cells were incubated with 1000 nM AS1411-AS1411, and corresponding cell samples were collected at time gradients of 0 h, 3 h, 6 h, 9 h, 12 h, and 24 h for protein extraction and subsequent western blot assay to detect protein degradation.
(2) A549 non-small cell lung cancer cells were incubated with AS1411-AS1411 at concentrations of 0 nM, 50 nM, 100 nM, 250 nM, 500 nM, and 1000 nM. After 12 h, cell samples were collected for protein extraction and subsequent western blot assay to detect protein degradation.
(3) A549 non-small cell lung cancer cells were incubated with 1000 nM AS1411, AS1411-AS1411, or AS1411+AS1411. After 12 h, cell samples were collected for protein extraction and subsequent western blot assay to detect protein degradation. […]

For data set [3], the system named is MCF 10A human normal mammary epithelial cells. Briefly: Toxicity to normal cells, cell apoptosis proportion by flow cytometer. In kind it is cell-based. As to conditions: 0-5000 nM, 4 days, medium renewed every day. How it is done:
The toxicity of AS1411 to normal cells was compared with that of the small molecule ligand nutlin-3a of MDM2 to normal cells. AS1411 or nutlin-3a at different concentrations (0 nM, 500 nM, 1000 nM, and 5000 nM) was incubated with MCF 10A human normal mammary epithelial cells for 4 days, and the medium containing the respective concentrations of AS1411 or nutlin-3a was renewed every day. The cell apoptosis proportion was detected using a flow cytometer.
(In general: In flow cytometry, cells or beads pass a laser one at a time.)

Data set [4] has as its system HeLa cervical cancer cells. Briefly: Binding of Cy5-labeled oligonucleotide to HeLa cells, flow cytometer. In kind it is cell-based. As to conditions: 500 nM Cy5-labeled, 1.5 h. How it is done:
When AS1411 was selected as the GRO, the model analysis for AS1411 as the novel recruitment element of MDM2 and a PROTAC constructed by using AS1411 as the novel recruitment element of MDM2 was specifically as follows: Since NCL is highly expressed in tumor cells and specifically distributed on the surface of tumor cells, the binding ability of AS1411 to HeLa cervical cancer cells was examined. HeLa cells were incubated with 500 nM CRO (cytosine-rich oligonucleotide, negative control) and AS1411 labeled by Cy5 for 1.5 h. […] AS1411 is set forth in SEQ ID NO: 1, and the sequence of the CRO is set forth in SEQ ID NO: 13.

T1 sequence (Q00987 whole entry): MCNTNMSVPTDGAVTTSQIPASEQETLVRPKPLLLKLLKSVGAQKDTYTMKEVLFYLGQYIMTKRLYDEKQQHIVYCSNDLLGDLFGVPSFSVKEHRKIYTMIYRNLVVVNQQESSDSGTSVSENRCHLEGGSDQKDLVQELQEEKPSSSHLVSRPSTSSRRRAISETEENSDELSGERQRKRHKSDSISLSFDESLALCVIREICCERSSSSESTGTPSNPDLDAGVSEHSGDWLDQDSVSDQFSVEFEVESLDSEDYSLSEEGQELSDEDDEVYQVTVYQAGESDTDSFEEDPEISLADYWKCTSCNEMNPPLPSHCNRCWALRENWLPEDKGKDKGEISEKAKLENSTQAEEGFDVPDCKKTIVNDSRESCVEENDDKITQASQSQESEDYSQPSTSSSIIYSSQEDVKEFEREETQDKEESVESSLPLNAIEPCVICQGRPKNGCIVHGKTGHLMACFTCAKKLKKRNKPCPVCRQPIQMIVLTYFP
T1 sequence (P19338 2-710 limits assumed): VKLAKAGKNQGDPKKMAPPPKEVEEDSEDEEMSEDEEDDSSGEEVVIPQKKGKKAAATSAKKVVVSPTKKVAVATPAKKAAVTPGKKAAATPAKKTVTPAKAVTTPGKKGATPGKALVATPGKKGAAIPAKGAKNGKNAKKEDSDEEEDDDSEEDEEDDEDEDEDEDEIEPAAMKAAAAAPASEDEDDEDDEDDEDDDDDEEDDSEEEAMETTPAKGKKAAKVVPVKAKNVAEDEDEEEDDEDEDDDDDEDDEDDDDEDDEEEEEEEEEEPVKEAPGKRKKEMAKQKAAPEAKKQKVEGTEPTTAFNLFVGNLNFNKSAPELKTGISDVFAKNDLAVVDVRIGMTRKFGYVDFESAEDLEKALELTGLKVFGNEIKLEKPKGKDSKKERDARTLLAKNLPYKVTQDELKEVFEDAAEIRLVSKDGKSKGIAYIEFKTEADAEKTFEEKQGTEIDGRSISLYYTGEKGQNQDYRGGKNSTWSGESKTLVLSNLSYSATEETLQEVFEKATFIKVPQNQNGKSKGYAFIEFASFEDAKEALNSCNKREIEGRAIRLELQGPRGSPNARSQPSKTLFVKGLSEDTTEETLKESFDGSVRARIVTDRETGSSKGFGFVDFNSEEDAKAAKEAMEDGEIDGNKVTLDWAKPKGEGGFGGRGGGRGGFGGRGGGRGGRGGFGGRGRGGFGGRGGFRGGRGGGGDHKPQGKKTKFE
MDM2 (Homo sapiens, UniProt Q00987), sequence (P19338 2-710 partner limits assumed): as the sequence (P19338 2-710 limits assumed) above
MDM2 (Homo sapiens, UniProt Q00987), sequence (Q00987 whole entry): as the sequence (Q00987 whole entry) above
STAT3, sequence (P40763 whole entry): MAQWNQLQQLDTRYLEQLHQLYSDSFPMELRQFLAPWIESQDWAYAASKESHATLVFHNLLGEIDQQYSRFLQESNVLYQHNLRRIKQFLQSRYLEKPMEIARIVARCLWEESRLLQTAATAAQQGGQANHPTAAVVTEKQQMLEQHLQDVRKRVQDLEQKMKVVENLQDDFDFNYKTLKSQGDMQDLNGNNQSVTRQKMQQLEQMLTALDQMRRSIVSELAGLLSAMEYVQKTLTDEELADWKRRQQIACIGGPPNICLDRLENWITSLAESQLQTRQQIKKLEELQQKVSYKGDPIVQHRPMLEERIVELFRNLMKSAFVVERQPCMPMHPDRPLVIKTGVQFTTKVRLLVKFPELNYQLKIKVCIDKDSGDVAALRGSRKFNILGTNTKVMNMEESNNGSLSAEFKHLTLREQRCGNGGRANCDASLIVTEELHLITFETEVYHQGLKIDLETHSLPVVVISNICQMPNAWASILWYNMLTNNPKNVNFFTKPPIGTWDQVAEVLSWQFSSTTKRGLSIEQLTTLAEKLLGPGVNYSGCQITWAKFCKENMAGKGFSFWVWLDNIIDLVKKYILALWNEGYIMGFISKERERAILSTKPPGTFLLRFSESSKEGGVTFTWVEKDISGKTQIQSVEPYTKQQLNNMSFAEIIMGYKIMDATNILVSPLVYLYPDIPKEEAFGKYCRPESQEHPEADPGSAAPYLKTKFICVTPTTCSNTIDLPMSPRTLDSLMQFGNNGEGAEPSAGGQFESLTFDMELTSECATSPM

For “AS1411: DNA aptamer, GRO binding NCL, SEQ ID NO: 1: 5′-GGTGGTGGTGGTTGTGGTGGTGGTGG-3′”, in the data set with STAT3, the “protein level of STAT3” value was “only the first PROTAC product 1411-S3-1 and the second PROTAC product 1411-S3-2 can reduce the protein level of transcription factor STAT3”. For the same substance, in the data set with HeLa cells, the cell penetration entry is “can penetrate HeLa cells”; the “intracellular colocalization with NCL and MDM2” value is “exhibits significant colocalization with both NCL and MDM2”. For the same substance, in the data set with HeLa cells (si-NCL), the “cell penetration when NCL is silenced” value is listed as “silencing NCL can block AS1411 from penetrating cells”; the “intracellular colocalization with MDM2 when NCL is silenced” value was “no observed colocalization between AS1411 and MDM2”. In the data set with MDM2 [1], the “capture of MDM2” value was “can capture NCL and MDM2 in a concentration-dependent manner”. Moreover, the “protein level of MDM2” value in the data set with MDM2 [2] (A549, 200 nM, 3 h) is listed as “neither AS1411, VH032, nor AS1411+VH032 can reduce the protein level of MDM2”. For the same substance, in the data set with MDM2 [2] (A549, 1000 nM, 12 h), the “protein level of MDM2” value was “neither AS1411 nor AS1411+AS1411 can reduce the protein level of MDM2”. The “toxicity to normal cells (cell apoptosis proportion)” value in data set [3] is “has no significant toxicity”. For the same substance, in data set [4], the “binding ability to HeLa cells” value is “can significantly bind to HeLa cells”.

(Values after patent US20260256923A1, “NEW RECRUITMENT ELEMENT OF UBIQUITIN LIGASE AND USE THEREOF” (SHENZHEN LINGGENE BIOTECH CO., LTD., priority 2023, published 2026).)
